Measured values published in patent EP0308782A2, “Antimycotic preparations” (BAYER AG, priority 1987, dated 1989).
In brackets after ≈: the same amount, converted by molar mass.

What was measured:
Trichophyton mentagr. = experiment: Antimycotic in-vitro activity, serial dilution test (MIC); assay type: cell-based; details: Sabouraud's milieu d'epreuve, 28 °C to 37 °C, 96 h incubation, inoculum 5 x 10³ to 10⁴ germs/ml; for MIC: Trichophyton, read-out: MHK-Werte Trichophyton mentagr.
Description: (§1) Die in-vitro-Prüfungen wurden im Reihenverdünnungstest mit Keiminokula von durchschnittlich 5 x 10³ bis 10⁴ Keimen/ml Substrat durchgeführt. Als Nährmedium dienten • a) für Dermatophyten und Schimmelpilze: Sabouraud's milieu d'epreuve • b) für Hefen: Fleischextrakt-Traubenzucker-Bouillon.
(§2) Die Bebrütungstemperatur betrug 28 °C bis 37 °C, die Bebrütungsdauer lag bei 24 bis 96 Stunden bei Hefen und 96 Stunden bei Dermatophyten und Schimmelpilzen.

Aspergillus fumigatus = experiment: as above; assay type: cell-based; details: Sabouraud's milieu d'epreuve, 28 °C to 37 °C, 96 h incubation, inoculum 5 x 10³ to 10⁴ germs/ml; for MIC: Aspergillus fumigatus, read-out: MHK-Werte Aspergillus fumigatus
Description: as §1, §2

Candida albicans = experiment: as above; assay type: cell-based; details: meat extract-glucose broth, 28 °C to 37 °C, 24 to 96 h incubation, inoculum 5 x 10³ to 10⁴ germs/ml; for MIC: Candida albicans, read-out: MHK-Werte Candida albicans
Description: as §1, §2

Torulopsis glabrata = experiment: as above; assay type: cell-based; details: meat extract-glucose broth, 28 °C to 37 °C, 24 to 96 h incubation, inoculum 5 x 10³ to 10⁴ germs/ml; for MIC: Nakaseomyces glabratus, read-out: MHK-Werte Torulopsis glabrata
Description: as §1, §2

Microsporum canis = experiment: as above; assay type: cell-based; details: Sabouraud's milieu d'epreuve, 28 °C to 37 °C, 96 h incubation, inoculum 5 x 10³ to 10⁴ germs/ml; for MIC: Microsporum canis, 96 h, read-out: MHK-Werte Microsporum canis
Description: as §1, §2

[1] = system: Dermatophyten, Schimmelpilze, Hefen; experiment: Antimycotic in-vitro activity, serial dilution test, overall spectrum; assay type: cell-based; details: statement in words on the in-vitro serial dilution test
Description: as §1, §2

Candida-Zellen = experiment: Antimycotic in-vivo activity (oral) in mouse candidosis; design: species or system Mäuse vom Typ SPF-CF₁; details: for Antimykotische in-vivo-Wirksamkeit (oral) bei Mäusecandidose: mice infected i.v. with 1 - 2 x 10⁶ Candida cells, 10 - 100 mg/kg oral 1 h before and 7 h after infection, survivors on day 6 p.i.; for antimykotische Wirkung: statement in words, mouse candidosis, oral 10 - 100 mg/kg
Description: Mäuse vom Typ SPF-CF₁ wurden intravenös mit 1 - 2 x 10⁶ logarithmisch wachsenden Candida-Zellen, die in physiologischer Kochsalzlösung suspendiert werden, infiziert. Eine Stunde vor und sieben Stunden nach der Infektion werden die Tiere mit jeweils 10 - 100 mg/kg Körpergewicht der Präparate oral behandelt.
Unbehandelte Tiere starben 3 bis 6 Tage post infektionem. Die Überlebensrate am 6.Tag post infektionem betrug bei unbehandelten Kontrolltieren etwa 5 %.

MIC (Trichophyton mentagr.) [µg/mL]	MIC (Aspergillus fumigatus) [µg/mL]	MIC (Candida albicans) [µg/mL]	MIC (Torulopsis glabrata) [µg/mL]	MIC (Microsporum canis) [µg/mL]	Structure (SMILES)	MHK-Werte Trichophyton mentagr. (Trichophyton mentagr.) [µg/ml Nährmedium]	MHK-Werte Aspergillus fumigatus (Aspergillus fumigatus) [µg/ml Nährmedium]	MHK-Werte Microsporum canis (Microsporum canis) [µg/ml Nährmedium]	MHK-Werte Candida albicans (Candida albicans) [µg/ml Nährmedium]	MHK-Werte Torulopsis glabrata (Torulopsis glabrata) [µg/ml Nährmedium]	antimykotisches Wirkungsspektrum [1]	Antimykotische in-vivo-Wirksamkeit (oral) bei Mäusecandidose (Candida-Zellen)	antimykotische Wirkung (Candida-Zellen)
64 (≈ 237 µM)	> 64	64 (≈ 237 µM)	> 64	–	OC(Cn1cncn1)(Cn1cncn1)c1ccccc1 [(A), reference compound]	–	–	–	–	–	–	–	–
8 (≈ 24 µM)	> 64	> 64	> 64	> 64	CC(C)(n1cncn1)C(O)(Cn1cncn1)c1ccc(Cl)cc1 (centres unmarked) [(B), reference compound]	–	–	–	–	–	–	–	–
–	–	–	–	–	CC(C)(n1cccn1)C(O)(CCc1ccc(Cl)cc1)Cn1cncn1 (centres unmarked) [Beispiel 1, 5-(4-Chlorphenyl)-2-methyl-2-(pyrazol-1-yl)-3-(1,2,4-triazol-methyl)-pentan-3-ol]	<1	2	2	2	2	gutes antimykotisches Wirkungsspektrum	–	–
4 (≈ 10.2 µM)	> 64	32 (≈ 81.9 µM)	> 64	–	CC(C)(Cn1cncn1)C(O)(CCc1ccc2ccccc2c1)Cn1cncn1 (centres unmarked) [Beispiel 2, 4,4-Dimethyl-1-(2-naphthyl)-5-(1,2,4-triazol-1-yl)-3-(1,2,4-triazol-1-yl-methyl)-3-pentanol]	–	–	–	–	–	gutes antimykotisches Wirkungsspektrum	–	–
< 1	4 (≈ 11.2 µM)	< 1	16 (≈ 44.7 µM)	4 (≈ 11.2 µM)	CC(C)(n1cccn1)C(O)(/C=C/c1ccc(Cl)cc1)Cn1cncn1 (centres unmarked) [Beispiel 7]	–	–	–	–	–	gutes antimykotisches Wirkungsspektrum	–	–
–	–	–	–	–	CC(C)(n1cncn1)C(O)(C=Cc1ccc(Cl)cc1)Cn1cncn1 (centres unmarked) [Beispiel 8]	–	–	–	–	–	–	++++ (gute Wirkung = 80 % Überlebende am 6.Tag.p.i.)	gute antimykotische Wirkung
2 (≈ 5.28 µM)	64 (≈ 169 µM)	< 1	32 (≈ 84.5 µM)	–	CC(C)(n1cncn1)C(O)(CSc1ccc(Cl)cc1)Cn1cncn1 (centres unmarked) [Beispiel 9]	–	–	–	–	–	gutes antimykotisches Wirkungsspektrum	–	–
8 (≈ 22 µM)	> 64	2 (≈ 5.51 µM)	> 64	–	CC(C)(n1cncn1)C(O)(COc1ccc(Cl)cc1)Cn1cncn1 (centres unmarked) [Beispiel 10]	–	–	–	–	–	gutes antimykotisches Wirkungsspektrum	+++++ (sehr gute Wirkung = 90 % Überlebende am 6.Tag.p.i.)	gute antimykotische Wirkung
2 (≈ 5.03 µM)	> 64	8 (≈ 20.1 µM)	> 64	–	CC(C)(n1cncn1)C(O)(COc1ccc(Cl)cc1Cl)Cn1cncn1 (centres unmarked) [Beispiel 11]	–	–	–	–	–	gutes antimykotisches Wirkungsspektrum	–	–
4 (≈ 10.6 µM)	> 64	16 (≈ 42.5 µM)	> 64	–	Cc1cc(Cl)ccc1OCC(O)(Cn1cncn1)C(C)(C)n1cncn1 (centres unmarked) [Beispiel 12]	–	–	–	–	–	gutes antimykotisches Wirkungsspektrum	–	–
2 (≈ 5.31 µM)	> 64	32 (≈ 84.9 µM)	> 64	–	Cc1ccc(OCC(O)(Cn2cncn2)C(C)(C)n2cncn2)c(Cl)c1 (centres unmarked) [Beispiel 13]	–	–	–	–	–	gutes antimykotisches Wirkungsspektrum	–	–
< 1	2 (≈ 5.56 µM)	–	–	2 (≈ 5.56 µM)	CC(C)(n1cccn1)C(O)(CCc1ccc(Cl)cc1)Cn1cncn1 (centres unmarked) [Beispiel 17]	–	–	–	16	32	–	–	–
–	–	–	–	–	CC(C)(n1cccn1)C(O)(CCc1ccc(Cl)cc1)Cn1cncn1 (centres unmarked) [Beispiel 18]	<1	2	4	8	2	–	–	–
2 (≈ 5.82 µM)	16 (≈ 46.6 µM)	16 (≈ 46.6 µM)	8 (≈ 23.3 µM)	–	CC(C)(n1cccn1)C(O)(CCc1ccccc1F)Cn1cncn1 (centres unmarked) [Beispiel 19]	–	–	–	–	–	–	–	–
< 1	< 1	4 (≈ 9.77 µM)	4 (≈ 9.77 µM)	2 (≈ 4.89 µM)	CC(C)(n1cccn1)C(O)(CCc1ccc(OC(F)(F)F)cc1)Cn1cncn1 (centres unmarked) [Beispiel 20]	–	–	–	–	–	–	–	–
< 1	2 (≈ 5.16 µM)	8 (≈ 20.6 µM)	16 (≈ 41.2 µM)	< 1	Cc1cc(C)n(C(C)(C)C(O)(CCc2ccc(Cl)cc2)Cn2cncn2)n1 (centres unmarked) [Beispiel 21]	–	–	–	–	–	–	–	–
2 (≈ 5.53 µM)	16 (≈ 44.3 µM)	2 (≈ 5.53 µM)	8 (≈ 22.1 µM)	–	CC(C)(n1cccn1)C(O)(CCc1ccc(F)cc1F)Cn1cncn1 (centres unmarked) [Beispiel 22]	–	–	–	–	–	–	–	–
2 (≈ 5.07 µM)	8 (≈ 20.3 µM)	8 (≈ 20.3 µM)	2 (≈ 5.07 µM)	–	CC(C)(n1cccn1)C(O)(CCc1ccc(Cl)cc1Cl)Cn1cncn1 (centres unmarked) [Beispiel 23]	–	–	–	–	–	–	–	–
< 1	8 (≈ 23.3 µM)	< 1	4 (≈ 11.6 µM)	4 (≈ 11.6 µM)	CC(C)(n1cccn1)C(O)(CCc1ccc(F)cc1)Cn1cncn1 (centres unmarked) [Beispiel 24]	–	–	–	–	–	–	–	–
2 (≈ 5.38 µM)	4 (≈ 10.8 µM)	16 (≈ 43.1 µM)	> 64	–	Cc1cc(C)n(C(C)(C)C(O)(CCc2ccc(F)cc2)Cn2cncn2)n1 (centres unmarked) [Beispiel 25]	–	–	–	–	–	–	–	–
< 1	2 (≈ 5.29 µM)	8 (≈ 21.2 µM)	32 (≈ 84.7 µM)	2 (≈ 5.29 µM)	CC(C)(n1cccn1)C(O)(CCc1ccc(Cl)cc1F)Cn1cncn1 (centres unmarked) [Beispiel 26]	–	–	–	–	–	–	–	–
4 (≈ 10.6 µM)	32 (≈ 84.7 µM)	8 (≈ 21.2 µM)	16 (≈ 42.3 µM)	–	CC(C)(n1cccn1)C(O)(CCc1ccc(F)cc1Cl)Cn1cncn1 (centres unmarked) [Beispiel 27]	–	–	–	–	–	–	–	–
< 1	16 (≈ 44.2 µM)	32 (≈ 88.4 µM)	16 (≈ 44.2 µM)	8 (≈ 22.1 µM)	CC(C)(n1cccn1)C(O)(COc1ccc(Cl)cc1)Cn1cncn1 (centres unmarked) [Beispiel 28]	–	–	–	–	–	–	–	–
< 1	16 (≈ 44.3 µM)	< 1	32 (≈ 88.7 µM)	4 (≈ 11.1 µM)	CC(C)(n1cncn1)C(O)(CCc1ccc(Cl)cc1)Cn1cncn1 (centres unmarked) [Beispiel 29]	–	–	–	–	–	–	–	–

Structure (SMILES)	MIC (Trichophyton mentagr.) [µg/mL]	MIC (Aspergillus fumigatus) [µg/mL]	MIC (Candida albicans) [µg/mL]	MIC (Torulopsis glabrata) [µg/mL]	MIC (Microsporum canis) [µg/mL]	MHK-Werte Trichophyton mentagr. (Trichophyton mentagr.) [µg/ml Nährmedium]	MHK-Werte Aspergillus fumigatus (Aspergillus fumigatus) [µg/ml Nährmedium]	MHK-Werte Microsporum canis (Microsporum canis) [µg/ml Nährmedium]	MHK-Werte Candida albicans (Candida albicans) [µg/ml Nährmedium]	MHK-Werte Torulopsis glabrata (Torulopsis glabrata) [µg/ml Nährmedium]	antimykotisches Wirkungsspektrum [1]	Antimykotische in-vivo-Wirksamkeit (oral) bei Mäusecandidose (Candida-Zellen)	antimykotische Wirkung (Candida-Zellen)
CC(C)(Cn1cncn1)C(O)(CCc1ccc(-c2ccccc2)cc1)Cn1cncn1 (centres unmarked) [Beispiel 5]	2 (≈ 4.8 µM)	8 (≈ 19.2 µM)	8 (≈ 19.2 µM)	32 (≈ 76.8 µM)	–	–	–	–	–	–	gutes antimykotisches Wirkungsspektrum	+++ (Wirkung = 60 % Überlebende am 6.Tag.p.i.)	gute antimykotische Wirkung
